# Experimental data from publication PMC11018795, “The regulatory relationship between NAMPT and PD-L1 in cancer and identification of a dual-targeting inhibitor” (EMBO Molecular Medicine, 2024).
# Several values for one entry are separate records, joined by “and”; a condition that tells them apart may be missing. Equal values may be shown once.
# Experiments:
# [1] = test system: A2780, HCT-116, LLC, CT-26 cells co-cultured with T cells; assay: T-cell-mediated tumor cell killing assay, A2780, HCT-116, LLC, CT-26; format: cell-based, human, mouse; conditions: 72 h co-culture
# Experimental: To acquire activated T cells, human peripheral blood mononuclear cells (PBMC; LTS1077, Yanjin Biological) were cultured in CTSTM AIIM VTM SFM (A3021002; Gibco) with ImmunoCult Human CD3/CD28/CD2 T-cell activator (25 µL/mL; […] Technologies, Cat#10970) for 48 h according to the manufacturer’s protocol. The experiments were performed using mouse anti-CD3 antibody (1 µg/mL; Thermo Scientific, 16-0032-82) and anti-CD28 antibody(5 µg/mL; Thermo Scientific, 16-0281-82). […] Different proportions of cancer cells and activated T cells were utilized according to the purpose of each experiment. The T-cell proliferation assay was 1:3; the T-cell killing assay was 1:10; T cells and cell debris were removed by PBS washing, and the living cancer cells were then quantified by a spectrometer at OD (570 nm) followed by crystal violet staining.
# [2] = test system: LLC OE N/P cells co-cultured with T cells; assay: T cell-mediated tumor cell killing assay, LLC OE N/P; format: cell-based; conditions: Mus musculus, 100 nM, read-out: inhibition rate (T cell-mediated killing)
# Experimental: To acquire activated T cells, human peripheral blood mononuclear cells (PBMC; LTS1077, Yanjin Biological) were cultured in CTSTM AIIM VTM SFM (A3021002; Gibco) with ImmunoCult Human CD3/CD28/CD2 T-cell activator (25 µL/mL; […] Technologies, Cat#10970) for 48 h according to the manufacturer’s protocol. The experiments were performed using mouse anti-CD3 antibody (1 µg/mL; Thermo Scientific, 16-0032-82) and anti-CD28 antibody(5 µg/mL; Thermo Scientific, 16-0281-82). Cancer cells were allowed to adhere to the plates overnight and then incubated for 48 h with activated T cells in the presence or absence of DX ([…]). Different proportions of cancer cells and activated T cells were utilized according to the purpose of each experiment. The T-cell proliferation assay was 1:3; the T-cell killing assay was 1:10; T cells and cell debris were removed by PBS washing, and the living cancer cells were then quantified by a spectrometer at OD (570 nm) followed by crystal violet staining. page 12: Fig 3: […] expression patterns. […] Data was obtained from the TCGA database. (B) T cell-mediated tumor cell killing assay. T cells were co-cultured with LLC Vector, […] CQ-85, or BMS202. […] stained by crystal violet. The relative added value of activated T cells is shown below. Data are presented as mean ± SEM; *P < 0.05, **P < 0.01, ***P < 0.001, compared with control. n.s., not significant. […]
# [3] = test system: HCT-116 cells; assay: Cell cycle analysis, HCT-116; format: cell-based, human
# Text: Supplement 44321_2024_51_MOESM5_ESM.zip/Fig4-D.xlsx, sheet "Sheet1" | column: G0/G1; S; G2/M
# [4] = test system: LLC OE NAMPT cells; assay: Cell viability 72 h, LLC OE NAMPT (Fig 4C); format: cell-based, mouse
# Experimental: In vitro cell viability was determined using a Cell Counting Kit-8 (MCE) assay. Cells (5 × 10^3/well) were seeded in 96-well culture plates. After 24 h, they were incubated with various concentrations of the test compounds for 48–72 h at 37 °C in a 5% CO2 incubator. Next, 10% of the CCK-8 solution was added to each well, and the plates were incubated for an additional 4 h at 37 °C. The optical density of each well was measured at 450 nm using a multimode plate reader (Molecular Devices, San Jose, CA, USA). Cells (5 × 10^3/well) were seeded into a 96-well plate and cultured at 37 °C in a 5% CO2 incubator. […] At the final time point, 10 μl MTT solution (5 mg/ml, Sigma, Burlington, MA, USA) was added to each well and incubated for an additional 4 h at 37 °C in a 5% CO2 incubator. Then,100 μl of DMSO was added to each well and mixed thoroughly. Optical density was measured at 492 nm using a microplate reader (Molecular Devices, San Jose, CA, USA).
# [5] = target: T1, PD-L1 (Homo sapiens, UniProt Q9NZQ7); assay: Cellular thermal shift assay (CETSA), PD-L1, A2780 cells; format: binding; conditions: for Relative band intensity (PD-L1): LZFPN-90 20 nM
# T1 construct: endogenous in cells; host or cells: A2780
# T1 sequence (Q9NZQ7 19-290): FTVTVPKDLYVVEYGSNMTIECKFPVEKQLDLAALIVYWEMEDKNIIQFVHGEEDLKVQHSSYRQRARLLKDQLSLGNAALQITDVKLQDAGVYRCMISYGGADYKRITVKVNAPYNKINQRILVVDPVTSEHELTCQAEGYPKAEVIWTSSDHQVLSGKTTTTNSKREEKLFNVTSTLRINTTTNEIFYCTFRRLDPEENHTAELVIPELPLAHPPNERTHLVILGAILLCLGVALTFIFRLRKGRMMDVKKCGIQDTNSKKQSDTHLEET
# Experimental: The cells were resuspended in 1× PBS supplemented with protease inhibitors (Roche) and then divided into strip tubes for 30 min. The tubes were centrifuged at 15,000× g at 4 °C for 15 min. After centrifugation, the supernatant was divided into DMSO and LZFPN-90 (20 nM) groups, and incubated at room temperature for 30 min. According to standard procedures (38 °C, 42 °C, 46 °C, 50 °C, 54 °C, 58 °C, 62 °C, 66 °C), each temperature group was heated for 3 min, incubated at room temperature for 3 min. Then centrifuged at 20,000× g for 25 min, the supernatant was collected, 1× loading buffer was added, the mixture was heated in a metal bath at 95 °C for 10 min, and the amount of non-denatured protein per sample was quantified by western blotting.
# [6] = target: T2, PD-1/PD-L1 interaction (Homo sapiens, UniProt Q9NZQ7); assay: In vitro PD-1/PD-L1-binding assay (Cisbio kit)
# T2 construct: purchased Cisbio 64ICP01PEG
# T2 sequence (Q9NZQ7 19-238 limits assumed): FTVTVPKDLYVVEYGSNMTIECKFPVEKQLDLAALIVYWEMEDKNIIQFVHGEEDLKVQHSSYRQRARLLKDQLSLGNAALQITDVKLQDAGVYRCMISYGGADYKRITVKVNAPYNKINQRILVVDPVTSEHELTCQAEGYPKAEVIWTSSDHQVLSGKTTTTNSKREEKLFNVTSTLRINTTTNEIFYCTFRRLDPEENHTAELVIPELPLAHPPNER
# Experimental: The biochemical activity of the final compounds was evaluated using a PD-1/PD-L1 binding assay kit (Cisbio, cat. No. 64ICP01PEG). Experiments were performed according to the manufacturer’s instructions.
# [7] = test system: Hep-3B cells; assay: MTT assay 48 h, Hep-3B; format: cell-based, human
# Experimental: Cells (5 × 10^3/well) were seeded into a 96-well plate and cultured at 37 °C in a 5% CO2 incubator. […] At the final time point, 10 μl MTT solution (5 mg/ml, Sigma, Burlington, MA, USA) was added to each well and incubated for an additional 4 h at 37 °C in a 5% CO2 incubator. Then,100 μl of DMSO was added to each well and mixed thoroughly. Optical density was measured at 492 nm using a microplate reader (Molecular Devices, San Jose, CA, USA).
smiles,measurement,setting,value
CCN(CC)CCCOc1cccc(-c2cccc3c2CCN3C(=O)c2ncc(CNC(=NC#N)Nc3ccncc3)s2)c1 [LZFPN-90],"T-cell killing of tumor cells, comparison at the same concentration",[1],more effective than BMS202
same,inhibition at 0.1 µM,[2],~80%
same,Cell cycle G0/G1,[3]; LZ90 20,30.68 and 20.48 and 22.54
same,Cell cycle G2/M,[3]; LZ90 20,39.61 and 24.71 and 42.91
same,Cell cycle S,[3]; LZ90 20,43.42 and 36.35 and 37.23
same,Cell cycle G0/G1,[3]; LZ90 40,26.06 and 19.94 and 21.52
same,Cell cycle G2/M,[3]; LZ90 40,39.6 and 30.95 and 41.08
same,Cell cycle S,[3]; LZ90 40,42.06 and 38.61 and 38.5
same,Cell cycle G0/G1,[3]; LZ90 60,42.69 and 40.27 and 41.43
same,Cell cycle G2/M,[3]; LZ90 60,18.16 and 13.12 and 19.4
same,Cell cycle S,[3]; LZ90 60,43.44 and 39.68 and 39.66
same,Relative viability,"[4]; head LLC OE NAMPT/PD-L1 (legend: LLC OE NAMPT), LZ90 0.25 (nM), 0 = 100",77.2963 and 85.357 and 93.8244
same,Relative viability,"[4]; head LLC OE NAMPT/PD-L1, LZ90 1",81.6379 and 75.0704 and 92.5933
same,Relative viability,"[4]; head LLC OE NAMPT/PD-L1, LZ90 4",70.2024 and 73.3725 and 88.779
same,Relative viability,"[4]; head LLC OE NAMPT/PD-L1, LZ90 16",63.5687 and 62.4896 and 67.6771
same,Relative viability,"[4]; head LLC OE NAMPT/PD-L1, LZ90 64",57.8886 and 54.3565 and 56.8184
same,Relative viability,"[4]; head LLC OE NAMPT/PD-L1, LZ90 256",39.2756 and 40.3926 and 41.8466
same,thermal stability of PD-L1,[5]; LZFPN-90 20 nM vs blank group,the stability of NAMPT and PD-L1 increased
same,Relative band intensity (PD-L1),[5]; 38 ℃,0.8 and 0.83
same,Relative band intensity (PD-L1),[5]; 42 ℃,0.79 and 0.8
same,Relative band intensity (PD-L1),[5]; 46 ℃,0.86 and 0.82
same,Relative band intensity (PD-L1),[5]; 50 ℃,0.7 and 0.76
same,Relative band intensity (PD-L1),[5]; 54 ℃,0.56 and 0.61
same,Relative band intensity (PD-L1),[5]; 58 ℃,1 and 1.07
same,Relative band intensity (PD-L1),[5]; 62 ℃,0.96 and 0.92
same,Relative band intensity (PD-L1),[5]; 66 ℃,0.36 and 0.31
same,IC50,[6],13 nM
same,Relative inhibition (敏感性),[7],0.42
